Measurements reported in paper PMC4428838, “Optimization of Invasion-Specific Effects of Betulin Derivatives on Prostate Cancer Cells through Lead Development” (PLoS ONE, 2015).

How the values were obtained:
Type in all cases: cell-based
PC-3 = assay: cells; conditions: Homo sapiens, PC-3; 2D monolayer, 72 h, Harmony software; no unit in the table, μM; read-out: Estimated EC50 values for cell proliferation, PC-3
Experimental: (§1) To rule out that cytotoxic and antimitotic effects were misinterpreted as anti-invasive, we tested compounds 4, 5, 6, 19 and 20 for inhibition of proliferation and induction of cell death in a 2D monolayer culture (summarized in Fig 6). […] LNCaP cells were more sensitive, with growth inhibition/cytotoxicity starting at 3 μM. The effects on non-transformed, apoptosis-sensitive Ep156T cells were strongest. Here, cytotoxic effects were typically observed already at 0.3–1 μM. […] We further calculated EC50 values for proliferation, apoptosis and cell death for each compound, using the PerkinElmer Harmony software (method validation shown in S7 Fig). The only assay that produced results consistent with those of the betulin derivatives tested in the 2D cell culture model was the proliferation assay (Table 1).
(§2) Fig 6 Cytotoxicity tests performed in 2D monolayer culture. A) Cell proliferation/cell number, B) programmed cell death (apoptosis), and C) number of dead cells were assessed by conventional assays, combined with high-content microscopy (Operetta). […] Proliferation was measured as the total number of nuclei (= cells), apoptosis as ratio of caspase-3 positive versus all cells, and cell death as ethidium homodimer-2 positive nuclei versus all cells.
(§3) Cells were transferred into CellCarrier 384-well plates (PerkinElmer, Waltham, MA, USA) at a density of 1250 cells/well, using Multidrop dispenser (ThermoFisher Scientific, Waltham, MA, USA). After overnight incubation at 37°C experimental, compounds were added with an ATS Acoustic Transfer System (EDC Biosystems, Fremont, CA, USA). For Ep156T cells the protocol was done in reverse with compounds dispensed before seeding of cells. Fluorescent markers were dispensed in culture medium using ATS system after 72-h compound exposure. Nuclei were stained with cell-permeable Hoechst 33342 (Molecular Probes, Eugene, OR, USA), dead cells with ethidium homodimer-2 (Invitrogen, Carlsbad, CA, USA) and apoptotic cells with NucView caspase-3 detection reagent (Essen Bioscience, Ann Arbor, MI, USA). Cells were imaged with Operetta high-content imager (PerkinElmer, Waltham, MA, USA). Proliferation was measured from the number of nuclei (cells), cell death and apoptosis from positive cells/total cells ratio using Harmony image analysis software (PerkinElmer, Waltham, MA, USA). EC50 values were also assessed with the Harmony software.

LNCaP = assay: Proliferation assay in 2D monolayer culture (number of nuclei, Operetta high-content imager, 72 h); conditions: Homo sapiens, Harmony software, no unit in the table, μM, read-out: Estimated EC50 values for cell proliferation, LNCaP
Experimental: as §1, §2, §3

EP156T = assay: as above; conditions: Harmony software, no unit in the table, μM, read-out: Estimated EC50 values for cell proliferation, EP156T
Experimental: as §1, with “6). A broad range of compound concentrations (1 nM to 30 μM) were used for PC-3, LNCaP and Ep156T cell lines, and analyzed with the PerkinElmer Operetta high-content imager.” for “6).”
as §2, §3

PC-3 cells = assay: Primary 3D screen in Matrigel ECM, morphometric image analysis (AMIDA) of invasion, growth and cell death; conditions: for anti-invasive effects in 3D culture (in words): 0.03-1 μM; for concentration suppressing the invasive transformation (roundness %): PC-3 spheroids, over 6 days
Experimental: Three standard of care compounds widely used against PrCa were added as controls; namely, the androgen receptor antagonist enzalutamide (MDV3100), the C17α-hydroxylase/C17,20-lyase inhibitor abiraterone (Zytiga), and the classic mitotic inhibitor paclitaxel. Treatments started at day 4, when well-differentiated round acini were established.
The live 3D cell cultures were then stained with reactive dyes Calcein AM to detect living, and ethidium homodimer to detect dead cells. Images (Fig 4A) were acquired with confocal microscope and image data were analyzed with the AMIDA software. The principles of morphometric image analysis are briefly outlined in S2 Fig.
Fig 4 Primary 3D screen. PC-3 cells were cultured in 3D Matrigel ECM for 4 days and treated for 6 days with 25 betulin derivatives (from 2D high throughput screens), DMSO/vehicle control, and three reference compounds. A) Representative maximum intensity projections of confocal microscope stack images for selected compound treatments at 300 nM concentration (5× objective, scale 100 μm). B) Three graphs showing the relative impact on three morphometric parameters for 7 betulin derivatives, DMSO control, and one control compound (paclitaxel). […] C) Hierarchical clustering was done using three morphological parameters derived from PC3 organoids: spheroid size (area), complexity and the number of dead cells. D) Wound healing curves of the two betulin derivatives 4 and 20, highlighting the 50% cut-off level (orange dashed line).
Next, statistical analyses were performed to interpret the complex image data (Fig 4B and 4C). For simplicity, we focused on only three, basic morphologic parameters from the multiparametric AMIDA readout (Fig 4B): 1) Area (indicating growth of organoids), 2) structural Complexity (as a measure of the intensity of invasion), and 3) Relative Area of dead cells within organoids (red signal as a measure of cytoxicity or apoptosis). Area (Size of organoids; Fig 4B, upper panel) was measured as the number of pixels within a segmented structure. […] Shape Complexity (Fig 4B, middle panel) was obtained using the structure size (area) and perimeter (number of border pixels). The more regular the shape of an organoid, the closer it is to a perfect circle, thus minimizing the perimeter relative to object size. […] Deviations from this average (residuals) were interpreted as a measure for the shape complexity of organoids. As a logical lower limit for this measure (represented by a perfect circle), we adjusted the intercept (height level) of the regression line to render all returned residuals as positive numbers.
All 3D cultures were done in growth factor-free Matrigel Basement-membrane Matrix (Corning Inc., New York, NY, USA) using 96-well Angiogenesis μ-plates (ibidi GmbH, Munich, Germany) as described before.[38] “Sandwich” assays in short: bottom wells of cooled Angiogenesis plates were filled with 10 μL 4 mg/mL Matrigel, centrifuged for 20 min 200 g and incubated at 37°C temperature for approximately 30–60 min or until the ECM had polymerized. 1,000–1,500 cells were mixed in 2 mg/mL ECM-medium, and 20 μL of cell suspension was added in each well. The plates were centrifuged for 10 min at 100 g, or until the cells had settled on top of the lower ECM. Finally, the outer wells and side reservoirs were filled with water for humidification, and the culture plates placed into the incubator for 3–4 h or overnight. The following day, 60 μL of cell culture medium were added; refreshed every third day by carefully aspirating the medium.

[1] = PC-3 in 3D Matrigel, 6 days treatment

| Compound | EC50 (PC-3) [µM] | EC50 (LNCaP) [µM] | EC50 (EP156T) [µM] | anti-invasive effects in 3D culture (in words) (PC-3 cells; [1]) | concentration suppressing the invasive transformation (roundness %) (PC-3 cells) | effect on morphometric measures (area, complexity, dead cells) (PC-3 cells; PC-3 in 3D Matrigel, paclitaxel at 30 and 100 nM) | concentration at which anti-invasive effects are seen in 3D (PC-3 cells; [1]) [nM] |
| --- | --- | --- | --- | --- | --- | --- | --- |
| C=C(C)[C@@H]1CC[C@]2(C(=O)O)CC[C@]3(C)C(CCC4[C@@]5(C)Cc6c[nH]nc6C(C)(C)C5CC[C@]43C)C12 (stereo partly shown) [Compound 6] | 90.8 | 6.4 | 0.21 | even more potent and proved to be specifically anti-invasive | – | – | – |
| C=C(C)[C@@H]1CC[C@]2(C(=O)O)CC[C@]3(C)C(CCC4[C@@]5(C)Cc6ncccc6C(C)(C)C5CC[C@]43C)C12 (stereo partly shown) [Compound 20] | 66.9 | 132 | 0.19 | potently anti-invasive at significantly lower concentrations | over 300 nM | – | – |
| CC(C)[C@@H]1CC[C@]2(C(=O)O)CC[C@]3(C)C(CCC4[C@@]5(C)Cc6cnoc6C(C)(C)C5CC[C@]43C)C12 (stereo partly shown) [Compound 4] | 55.9 | 93.1 | 0.2 | – | – | – | – |
| CC(=O)O[C@H]1C(=O)[C@@]2(C)[C@H]([C@H](OC(=O)c3ccccc3)[C@]3(O)C[C@H](OC(=O)[C@H](O)[C@@H](NC(=O)c4ccccc4)c4ccccc4)C(C)=C1C3(C)C)[C@]1(OC(C)=O)CO[C@@H]1C[C@@H]2O [Paclitaxel, paclitaxel, reference compound] | 0.0012 | 0.0006 | 0.0008 | – | – | strong effect on all morphometric measures | – |
| C=C(C)[C@@H]1CC[C@]2(C(=O)O)CC[C@]3(C)C(CCC4[C@@]5(C)Cc6cnoc6C(C)(C)C5CC[C@]43C)C12 (stereo partly shown) [Compound 5] | 9.5 | 64.6 | 0.22 | – | over 300 nM | – | 300 |
| C=C(C)[C@@H]1CC[C@]2(C(=O)O)CC[C@]3(C)C(CCC4[C@@]5(C)Cc6cccnc6C(C)(C)C5CC[C@]43C)C12 (stereo partly shown) [Compound 19] | 86.9 | 0.9 | 0.18 | potently anti-invasive at significantly lower concentrations | – | – | – |
